For 25 compounds, Ki results are on record in US5478939A, “(R,R) and (S,S) 2,5-diazabicyclo [2,2,1]heptane derivatives” (priority 1994, dated 1995).

Structures can show the parent of a compound that is named as a salt.

For experiment [1], the target named is muscarinic cholinergic receptor (high affinity agonist conformation). Nature of the experiment: [3H]-cis-Methyldioxolane (3H-CD) Binding Assay (High Affinity), cerebral cortex. To be noted: 3H-CD 1.0 nM, rat cerebral cortex, 25° C., 120 minutes, pH 7.4; read-out: Ki, ^3 H-CD (ctx).
Experiment [2] deals with muscarinic cholinergic receptor. Nature of the experiment: [3H] Quinuclidinyl Benzilate (QNB) Binding Assay, cerebral cortex. To be noted: 3H-QNB 0.25 nM, rat cerebral cortex, 25° C., 120 minutes, pH 7.4; read-out: Ki, ^3 H-QNB (ctx).

For orientation: Ki means a dissociation constant, usually derived from enzyme kinetics or from competition with a known ligand. Consider `CN1C[C@@H]2C[C@H]1CN2c1cncc(Cl)n1` [Example 24, (S,S)-2-(6-Chloropyrazin-2-yl)-5-methyl-2.5-diazabicyclo[2.2.1]heptane], for which the inhibition constant Ki in experiment [1] amounted to 2 µM; in experiment [2], 4.5 µM.

`Cc1noc(N2C[C@@H]3C[C@H]2CN3C(=O)OC(C)(C)C)n1` [Example 10]: in experiment [1], the Ki came out at 43.2 µM.

`Cc1nsc(N2C[C@@H]3C[C@H]2CN3C)n1` [Example 26, (S,S)-2-Methyl-5-(3-methyl-1,2,4-thiadiazol-5-yl)-2,5-diazabicyclo[2.2.1]heptane]: the Ki in experiment [1] is 0.2 µM; in experiment [2] it was 0.5 µM.

As to `CN1C[C@@H]2C[C@H]1CN2c1ccc([N+](=O)[O-])s1` [Example 29, (S,S)-2-Methyl-5-(5-nitro-2-thienyl)-2,5-diazabicyclo[2.2.1]heptane], the inhibition constant (Ki) in experiment [1] worked out at 6.8 µM; in experiment [2], 13.2 µM.

Take `CN1C[C@@H]2C[C@H]1CN2c1sccc1[N+](=O)[O-]` [Example 28, (S,S)-2-Methyl-5-(3-nitro-2-thienyl)-2,5-diazabicyclo[2.2.1]heptane]: the inhibition constant Ki in experiment [1] was 9.8 µM; in experiment [2] it was > 1000 µM.

For `CN1C[C@@H]2C[C@H]1CN2c1nccnc1Cl` [Example 23, (S,S)-2-(3-Chloropyrazin-2-yl)-5-methyl-2,5-diazabicyclo[2.2.1]heptane], the inhibition constant Ki in experiment [1] was determined as 0.9 µM; in experiment [2], 2.3 µM.

On to `CC(C)(C)OC(=O)N1C[C@@H]2C[C@H]1CN2c1ncns1` [Example 8, (S,S)-2-(tert-Butyloxycarbonyl)-5-(1,2,4-thiadiazol-5-yl)-2,5-diazabicyclo[2.2.1]heptane], for which the inhibition constant (Ki) in experiment [1] was determined as 97 µM.

Take `Cc1nsc(N2C[C@H]3C[C@@H]2CN3C(=O)OC(C)(C)C)n1` [Example 5]: the values for the Ki in experiment [1] and in experiment [2] were 59 µM and > 1000 µM, respectively.

Take `c1cnc(N2C[C@@H]3C[C@H]2CN3)cn1` [Example 12, (S,S)-2-(2-Pyrazinyl)-2,5-diazabicyclo[2.2.1]heptane hydrochloride]: the Ki in experiment [1] is 1.3 µM; in experiment [2], 11.4 µM.

`COc1cncc(N2C[C@@H]3C[C@H]2CN3C)n1` [Example 32, (S,S)-2-Methyl-5-(6-methoxypyrazin-2-yl)-2,5-diazabicyclo[2.2.1]heptane]: the inhibitory constant (Ki) in experiment [1] came to 0.3 µM; in experiment [2], 0.4 µM.

In the case of `CN1C[C@@H]2C[C@H]1CN2c1cnccn1` [Example 19, (S,S)-2-Methyl-5-(2-pyrazinyl)-2,5-diazabicyclo[2.2.1]heptane], the inhibition constant Ki in experiment [1] was 0.4 µM; in experiment [2], 5.5 µM.

Take `Cc1nsc(N2C[C@H]3C[C@@H]2CN3)n1` [Example 14, (R,R)-2-(3-Methyl-1,2,4-thiadiazol-5-yl)-2,5-diazabicyclo[2.2.1]heptane]: the results for the Ki in experiment [1] and in experiment [2] were 0.9 µM and 24.7 µM, respectively.

As to `Cc1noc(N2C[C@@H]3C[C@H]2CN3)n1` [Example 17, (S,S)-2-(3-Methyl-1,2,4-oxadiazol-5-yl)-2,5-diazabicyclo[2.2.1]heptane], the results for the Ki in experiment [1] and in experiment [2] were 5.4 µM and > 1000 µM, respectively.

Consider `c1nsc(N2C[C@@H]3C[C@H]2CN3)n1` [Example 15, (S,S)-2-(1,2,4-Thiadiazol-5-yl)-2,5-diazabicyclo[2.2.1]heptane], for which the Ki in experiment [1] was 29.5 µM; in experiment [2], > 1000 µM.

With `c1nsc(N2C[C@H]3C[C@@H]2CN3)n1` [Example 16, (R,R)-2-(1,2,4-Thiadiazol-5-yl) -2,5-diazabicyclo[2.2.1]heptane], the Ki is 0.3 µM in experiment [1] and > 1000 µM in experiment [2].

In the case of `Cc1cnc(C)c(N2C[C@@H]3C[C@H]2CN3C)n1` [Example 22, (S,S)-2-(3,6-Dimethylpyrazin-2-yl)-5-methyl-2,5-diazabicyclo[2,2.1]heptane], the inhibition constant Ki in experiment [1] turned out to be 0.7 µM; in experiment [2] it was 1.2 µM.

Consider `CN1C[C@@H]2C[C@H]1CN2c1ccccc1[N+](=O)[O-]` [Example 30, (S,S)-2-Methyl-5-(2-nitrophenyl)-2,5-diazabicyclo[2.2.1]heptane], for which the values for the Ki in experiment [1] and in experiment [2] were 1.1 µM and 1.6 µM, respectively.

As for `CN1C[C@H]2C[C@@H]1CN2c1cnccn1` [Example 36, (R,R)-2-Methyl-5-(2-pyrazinyl)-2,5-diazabicyclo[2.2.1]heptane], the inhibition constant Ki was 6.4 µM in experiment [1] and > 1000 µM in experiment [2].

As to `Cc1noc(N2C[C@H]3C[C@@H]2CN3)n1` [Example 18, (R,R)-2-(3-Methyl-1,2,4-oxadiazol-5-yl)-2,5-diazabicyclo[2.2.1]heptane], the Ki worked out at 0.4 µM in experiment [1] and 47.2 µM in experiment [2].

As for `c1cnc(N2C[C@H]3C[C@@H]2CN3)cn1` [Example 11, (R,R)-2-(2-Pyrazinyl)-2,5-diazabicyclo[2.2.1]heptane hydrochloride], the Ki amounted to 0.1 µM in experiment [1] and 3.1 µM in experiment [2].

For the compound `Cc1nccnc1N1C[C@@H]2C[C@H]1CN2C` [Example 35, (S,S)-2-Methyl-5-(3-methylpyrizin-2-yl)-2,5-diazabicyclo[2.2.1]heptane], the inhibition constant (Ki) in experiment [1] was found to be 1.7 µM; in experiment [2], 6.3 µM.

Regarding `CC(C)(C)OC(=O)N1C[C@H]2C[C@@H]1CN2c1cnccn1` [Example 3, (R,R)-2-(tert-Butyloxycarbonyl)-5-(2-pyrazinyl)-2,5-diazabicyclo[2.2.1]heptane], the Ki in experiment [1] was > 1000 µM.

For the compound `Cc1nsc(N2C[C@@H]3C[C@H]2CN3)n1` [Example 13, (S,S)-2-(3-Methyl-1.2,4-thiadiazol-5-yl)-2,5-diazabicyclo[2.2.1]heptane], in experiment [1], the Ki turned out to be 13 µM.

As for `CC(C)(C)OC(=O)N1C[C@H]2C[C@@H]1CN2c1ncns1` [Example 7], the Ki in experiment [1] was > 1000 µM.

As to `Cc1noc(N2C[C@H]3C[C@@H]2CN3C(=O)OC(C)(C)C)n1` [Example 9, (R,R)-2-(tert-Butyloxycarbonyl)-5-(3-methyl-1,2,4-oxadiazol-5-yl)-2,5-diazabicyclo[2.2.1]heptane], the inhibition constant Ki in experiment [1] came to 18.2 µM.
